Literature values in paper PMC13363528, “Structure–Activity Relationships of Pyrrolyl-Containing Diketo Acid and Non-Diketo Acid Derivatives as Inhibitors of SARS-CoV-2 nsp13-Associated Activities” (Molecules, 2026).

Target: SARS-CoV-2 nsp13 (Severe acute respiratory syndrome coronavirus 2, UniProt P0DTD1)
Settings: without BSA/TCEP; read-out: IC50 Unwinding

For O=c1c(O)c(-c2ccc(O)cc2)oc2cc(O)cc(O)c12 [Kaempferol], the IC50 is given as 0.76 ± 0.16 µM.
